In patent US20220213060A1, “Crystal Form of Quinazolinone Compound and Preparation Method Therefor” (Luoxin Healthcare Science and Technology Development …, priority 2019, published 2022):
Read-outs that look alike come from different tables or passages of the source.

Experiments:
[1] = tested on: p-AKT; test: Western blot analysis of p-AKT protein expression level in BT474 tumor tissue samples; assay type: in vivo; settings: BT-474 nude mouse transplanted tumor model, 0.5 h, 4 h, 24 h after administration
Method: 7.1 Protein extraction and quantification
1) Quick-frozen tissue samples were taken out from the refrigerator at −80° C.
2) Operating on dry ice, cutting part of the tissues (about 30 mg), putting them into a 2 mL centrifuge tube with steel balls, and adding 500 μL of cell lysate RIPA (1% protease inhibitor and phosphatase inhibitor had been newly added).
3) Tissue was broken for 5 minutes using the highest frequency of Tissuelyser LT.
4) The tissue lysate was placed on ice for 30 minutes.
5) Centrifuging at 12,000 rpm at 4° C. for 10 minutes and removing the supernatant into a new 1.5 mL centrifuge tube.
6) The protein was quantified by BCA quantitative kit.
7) According to the quantitative results, the protein sample for loading was prepared, the protein concentration of the sample was unified to 2 μg/μL, LDS loading buffer (4×) and sample reducing agent (10×) were added, and the sample was heated at a constant temperature of 100° C. for 10 minutes.
8) Western blotting, or storing the denatured samples in a refrigerator at −80° C.
1) The sample for loading was thawed. […]
5) After the membrane transfer was finished, the membrane was cut according to the molecular weight of the protein to be detected, the membrane was washed with 1×TBST for 3 times and 5 minutes each time, and was shaken at room temperature. […]
13) Chemiluminescence was detected and photographed on the Tanon 5200 multi machine.

[2] = Sprague Dawley (SD) rat absorption test (pharmacokinetics); assay type: in vivo, SD rats; settings: for C0 / Tmax / bioavailability / Tmax at 7 days / Vd / AUC(0-t) / clearance / half-life / Cmax / half-life at 7 days: Sprague-Dawley, rat, plasma; for AUC0-last / t1/2: listed as crystal form A of the compound represented by formula (I); for Vd: read-out: Vdss
Method: SD rats were given the crystal form A of the compound represented by formula (I) by single or multiple oral gavage and single intravenous injection respectively, with 6 rats in each group, half male and half female. According to the results of pharmacodynamic and toxicological experiments, the single oral gavage doses were 3, 10 and 30 mg/kg respectively; the multiple doses were 10 mg/kg, once a day for 7 consecutive days; the single intravenous dose was 1 mg/kg. According to the drug plasma concentration-time curve, the pharmacokinetic parameters were calculated. In this experiment, SD rats were provided by Beijing Vital River Experimental Animal Technology Co., Ltd., and were divided into 4 groups (3/sex/group) according to their similar weight. The vehicle for the intravenous group was 5% HP-betaCD/5% Solutol aqueous solution (pH=8); the vehicle for the oral group was 0.5% MC/0.2% Tw80 aqueous solution. Plasma samples were collected by jugular vein puncture in rats.

[3] = female SD rats, oral, 3 mg/kg, single
[4] = male SD rats, oral, 3 mg/kg, single
[5] = female SD rats, vein, 1 mg/kg, single
[6] = female, iv, 1 mg/kg, female SD rats, vein, single
[7] = female, po, 3 mg/kg, female SD rats, single
[8] = female, po, 10 mg/kg, female SD rats, oral, 10 mg/kg once a day, Day 7
[9] = female, po, 10 mg/kg, female SD rats, oral, 10 mg/kg, Day 1
[10] = female, po, 30 mg/kg, female SD rats, single
[11] = male SD rats, vein, 1 mg/kg, single
[12] = male, iv, 1 mg/kg, male SD rats, vein, single
[13] = male, po, 3 mg/kg, male SD rats, single
[14] = male, po, 10 mg/kg, male SD rats, oral, 10 mg/kg once a day, Day 7
[15] = male, po, 10 mg/kg, male SD rats, oral, 10 mg/kg, Day 1
[16] = male, po, 30 mg/kg, male SD rats, single

C0 ([2]; iv, female SD rats, vein, 1 mg/kg, single): 14.2 µM | C0 ([2]; iv, male SD rats, vein, 1 mg/kg, single): 12.7 µM | Tmax [2, 3]: 0.5 h | bioavailability [2, 3]: 53.1% | Tmax at 7 days ([2]; female SD rats, oral, 10 mg/kg once a day, Day 7): 0.5 h | Tmax ([2]; female SD rats, oral, 10 mg/kg, Day 1): 0.667 ± 0.289 h | Tmax ([2]; female SD rats, oral, 30 mg/kg, single): 0.5 h | Tmax [2, 4]: 0.417 ± 0.144 h | bioavailability [2, 4]: 34.7% | Tmax at 7 days ([2]; male SD rats, oral, 10 mg/kg once a day, Day 7): 0.667 h | Tmax ([2]; male SD rats, oral, 10 mg/kg, Day 1): 0.5 h | Tmax ([2]; male SD rats, oral, 30 mg/kg, single): 0.667 ± 0.289 h | AUC0-last [2, 5]: 17.4 µM·h | t1/2 [2, 5]: 3.26 h | Vd ([2]; female, iv, 1 mg/kg, female SD rats, vein, 1 mg/kg, single): 0.257 ± 0.0227 L/kg | AUC(0-t) [2, 6]: 9.89 ± 1.41 µM·h | clearance [2, 6]: 3.12 ± 0.431 mL/min/kg | half-life [2, 6]: 1.63 ± 0.809 h | AUC(0-t) [2, 7]: 27.7 ± 8.72 µM·h | Cmax [2, 7]: 6.39 ± 1.71 µM | half-life [2, 7]: 2.71 h | AUC(0-t) [2, 8]: 86 ± 19.9 µM·h | Cmax [2, 8]: 20.5 ± 4.6 µM | half-life at 7 days [2, 8]: 3.74 h | AUC(0-t) [2, 9]: 60.9 ± 10.9 µM·h | Cmax [2, 9]: 12.1 ± 3.69 µM | half-life [2, 9]: 2.92 h | AUC(0-t) [2, 10]: 177 ± 48 µM·h | Cmax [2, 10]: 39.1 µM | half-life [2, 10]: 2.72 h | AUC0-last [2, 11]: 9.89 µM·h | t1/2 [2, 11]: 1.63 h | Vd ([2]; male, iv, 1 mg/kg, male SD rats, vein, 1 mg/kg, single): 0.265 ± 0.05 L/kg | AUC(0-t) [2, 12]: 17.4 ± 4.79 µM·h | clearance [2, 12]: 1.79 ± 0.457 mL/min/kg | half-life [2, 12]: 3.26 ± 1.13 h | AUC(0-t) [2, 13]: 10.3 ± 4.6 µM·h | Cmax [2, 13]: 4.77 ± 1.01 µM | half-life [2, 13]: 2.26 h | AUC(0-t) [2, 14]: 48.5 ± 4.64 µM·h | Cmax [2, 14]: 13.9 ± 1.61 µM | half-life at 7 days [2, 14]: 3.95 h | AUC(0-t) [2, 15]: 23.7 ± 0.721 µM·h | Cmax [2, 15]: 6.8 ± 0.583 µM | half-life [2, 15]: 2.49 h | AUC(0-t) [2, 16]: 45.3 ± 10.9 µM·h | Cmax [2, 16]: 14.5 ± 4.73 µM | half-life [2, 16]: 2.61 h
SMILES: CNC(=O)[C@H](C)Cn1cnc2ccc(-c3cnc(OC)c(NS(=O)(=O)c4ccc(F)cc4F)c3)cc2c1=O
Akt phosphorylation level downstream of PI3K in tumor tissue (Western blot, FIG. 10) [1]: significantly inhibit
